≈ marks a conversion by molar mass, not a printed value.
Legend:
Assay type in all cases: physicochemical
[1] = In vitro therapeutic agent release (USP Dissolution Test Method II, 0.05M isotonic phosphate buffer pH 6.0 with 30 weight percent PEG 400); conditions: for In vitro release of 17 β-estradiol: Example 17 carrier (Table XIX, mannitol); for In vitro release of dehydroepiandrosterone: Example 12 carrier, 5 mg DHEA; for Therapeutic Agent Release Parameter, T, 20% / Therapeutic Agent Release Parameter, T, 50% / Therapeutic Agent Release Parameter, T, 75% / Therapeutic Agent Release Parameter, T, 90%: Example 7 carrier (Table VII), 20 mg agent, agent:PEG 8000 1:2
Description: Therapeutic agent release studies were conducted using an Erweka dissolution test assembly in compliance with Dissolution Test Method II as described in The United States Pharmacopeia, 24th revision (USP XXIV). Five hundred milliliters of a 0.1M phosphate buffer dissolution fluid was maintained at about 37° C. (about 100° F.) and the […] was rotated at 50 revolutions per minute (rpm). At predetermined time points, samples of approximately 3 milliliters of the test medium were withdrawn from the flasks and immediately replaced with an equivalent volume of blank buffer. Analysis of the samples was performed by ultraviolet spectrophotometry. […] The time to achieve 20%, 50% and 80% by weight dissolution of the piroxicam was estimated from a linear plot of percent dissolved versus time.
Therapeutic agent release testing was conducted by the USP Dissolution Test Method II. The dissolution medium chosen was 500 ml of a 0.05M isotonic phosphate buffer having a 6.0 pH with 30 weight percent PEG 400.
An equivalent of 20 mg of albuterol in a mucosal composition of a albuterol:PEG 8000 weight in a ratio of 1:2 was included in each carrier. […] Plots of weight percent therapeutic agent released versus time were constructed and the drug release parameter T (in hours) for a given weight and percent drug released was calculated from the plots.

[2] = as above; conditions: for In vitro release of 17 β-estradiol: Example 17 carrier (Table XIX, mannitol); for In vitro release of therapeutic agent: 20 mg piroxicam
[3] = Saturation solubility in phosphate buffer; conditions: 0.1m phosphate buffer, aqueous buffer

## C[C@]12CC[C@@H]3c4ccc(O)cc4CC[C@H]3[C@@H]1CC[C@@H]2O [17 β-estradiol]
[1]; Example 10 carrier, 17 β-estradiol, 1 hour
  In vitro release of therapeutic agent: 2.5 weight percent
[1]; Example 10 carrier, 17 β-estradiol, 2 hours
  In vitro release of therapeutic agent: 4 weight percent
[1]; Example 10 carrier, 17 β-estradiol, 5 hours
  In vitro release of therapeutic agent: 9.5 weight percent
[1]; Example 10 carrier, 17 β-estradiol, 24 hours
  In vitro release of therapeutic agent: 46.3 weight percent
[1]; 5 hours
  In vitro release of 17 β-estradiol: 9.5 weight percent
[1]; 10 hours
  In vitro release of 17 β-estradiol: 15 weight percent
[2]; Example 10 carrier, 17 β-estradiol
  Order of release: apparent zero order process
[2]; 15 hours
  In vitro release of 17 β-estradiol: 17 weight percent
[2]; 20 hours
  In vitro release of 17 β-estradiol: 19.5 weight percent

## C[C@]12CC[C@H](O)CC1=CC[C@@H]1[C@@H]2CC[C@]2(C)C(=O)CC[C@@H]12 [dehydroepiandrosterone]
[1]; 6 hours
  In vitro release of dehydroepiandrosterone: 20 weight percent
[1]; 10.5 hours
  In vitro release of dehydroepiandrosterone: 30 weight percent
[1]; 13 hours
  In vitro release of dehydroepiandrosterone: 40 weight percent
[1]; 23 hours
  In vitro release of dehydroepiandrosterone: 50 weight percent

## CC(C)(C)NCC(O)c1ccc(O)c(CO)c1 (stereo not drawn) [Albuterol]
[1]
  Therapeutic Agent Release Parameter, T, 20%: 0.58 h
  Therapeutic Agent Release Parameter, T, 50%: 3.16 h
  Therapeutic Agent Release Parameter, T, 75%: 5.67 h
  Therapeutic Agent Release Parameter, T, 90%: 6.83 h
[1]; Example 13 carrier (Table XV)
  Time to release 20% by weight of albuterol: approximately 0.8 hr
  Time to release 50% by weight of albuterol: ~2.6 h
  Time to release 75% by weight of albuterol: ~6 h
  Time to release 90% by weight of albuterol: ~10.5 h
[1]; Example 14 carrier (Table XVI)
  Time to release 20% by weight of albuterol: approximately 1 hr
  Time to release 50% by weight of albuterol: ~3.5 h
  Time to release 75% by weight of albuterol: ~8 h
  Time to release 90% by weight of albuterol: ~15 h
[1]; Example 15 carrier (Table XVII), 3 hours
  In vitro release of albuterol: 22 weight percent
[1]; Example 15 carrier (Table XVII), 7.5 hours
  In vitro release of albuterol: 50 weight percent
[1]; Example 15 carrier (Table XVII), 12 hours
  In vitro release of albuterol: 75 weight percent
[1]; Example 15 carrier (Table XVII), 18 hours
  In vitro release of albuterol: 90 weight percent
[1]; Example 16 carrier (Table XVIII), 2 hours
  In vitro release of albuterol: 27 weight percent
[1]; Example 16 carrier (Table XVIII), 5 hours
  In vitro release of albuterol: 50 weight percent
[1]; Example 16 carrier (Table XVIII), 10 hours
  In vitro release of albuterol: 73 weight percent
[1]; Example 16 carrier (Table XVIII), 19 hours
  In vitro release of albuterol: 90 weight percent

## CN1C(C(=O)Nc2ccccn2)=C(O)c2ccccc2S1(=O)=O [piroxicam]
[3]
  solubility: ~7700 µg/mL (≈ 23.2 mM)
[1]; Example 9 carrier, 20 mg piroxicam, 6 hours
  In vitro release of therapeutic agent: 24.1 weight percent
[1]; Example 9 carrier, 20 mg piroxicam, 23 hours
  In vitro release of therapeutic agent: 56 weight percent
[1]; Example 9 carrier, 20 mg piroxicam, one hour
  In vitro release of therapeutic agent: 5 weight percent
[1]; Example 9 carrier, piroxicam
  Order of release: apparent zero order rate
[2]; Example 9 carrier, three hours
  In vitro release of therapeutic agent: 13 weight percent
[2]; Example 9 carrier, two hours
  In vitro release of therapeutic agent: 9 weight percent
[2]; Example 9 carrier, piroxicam, after 23 hours
  Therapeutic agent remaining in the carrier: 36-47 weight percent

## CC(N)C(O)c1ccccc1 (stereo not drawn) [Phenylpropanolamine]
[1]
  Therapeutic Agent Release Parameter, T, 20%: 0.58 h
  Therapeutic Agent Release Parameter, T, 50%: 2.83 h
  Therapeutic Agent Release Parameter, T, 75%: 6.04 h
  Therapeutic Agent Release Parameter, T, 90%: 8.42 h

From US5047244A, “Mucoadhesive carrier for delivery of therapeutical agent” (priority 1988, dated 1991)
